Laboratory results taken from patent US11701368B2 (EYE CO PTY LTD, priority 2018, dated 2023).
Like-named read-outs stand apart in the source and are kept apart here.

Experiments:
[1] = system: New Zealand albino rabbit eyes; details: cited from earlier work; for ERG in the other groups / other eyes: intravitreal 400 μg, 1 mg, 2 mg/0.1 ml and remaining eyes; for time by which all aggregates disappeared: intravitreal
[2] = system: New Zealand albino rabbit eyes; assay: Intravitreal toxicology of fludrocortisone acetate in rabbits; details: every 4 weeks; based on difference in vitreous volume between man and rabbit
Description: (§1) All animals were examined before and after injection using the indirect ophthalmoscope and slit-lamp biomicroscopy. Electroretinography (ERG) was performed on all animals before intravitreal injection and two weeks after injection. The animals were re-examined at this time by indirect ophthalmoscopy and slit-lamp biomicroscopy and were euthanized. The eyes were enucleated and examined with light microscopy.
(§2) Surgeries were performed on the eyes of 25 New Zealand white rabbits. […] The control eyes received 0.1 ml of sterile BSS. All animals were examined before and after injection using indirect ophthalmoscope and slit-lamp biomicroscopy. Electroretinography (ERG) was performed on all animals prior to intravitreal injection and two weeks after injection. The animals were re-examined at this time by indirect ophthalmoscope and slit-lamp biomicroscopy and were euthanized. Their eyes were enucleated and examined with light microscopy.

[3] = biological target: T1, mineralocorticoid receptor (Homo sapiens, UniProt P08235); assay: Mineralocorticoid receptor activity (MR potency) of corticosterones; details: relative potency, hydrocortisone (cortisol) = 1
T1 sequence (P08235 1-984): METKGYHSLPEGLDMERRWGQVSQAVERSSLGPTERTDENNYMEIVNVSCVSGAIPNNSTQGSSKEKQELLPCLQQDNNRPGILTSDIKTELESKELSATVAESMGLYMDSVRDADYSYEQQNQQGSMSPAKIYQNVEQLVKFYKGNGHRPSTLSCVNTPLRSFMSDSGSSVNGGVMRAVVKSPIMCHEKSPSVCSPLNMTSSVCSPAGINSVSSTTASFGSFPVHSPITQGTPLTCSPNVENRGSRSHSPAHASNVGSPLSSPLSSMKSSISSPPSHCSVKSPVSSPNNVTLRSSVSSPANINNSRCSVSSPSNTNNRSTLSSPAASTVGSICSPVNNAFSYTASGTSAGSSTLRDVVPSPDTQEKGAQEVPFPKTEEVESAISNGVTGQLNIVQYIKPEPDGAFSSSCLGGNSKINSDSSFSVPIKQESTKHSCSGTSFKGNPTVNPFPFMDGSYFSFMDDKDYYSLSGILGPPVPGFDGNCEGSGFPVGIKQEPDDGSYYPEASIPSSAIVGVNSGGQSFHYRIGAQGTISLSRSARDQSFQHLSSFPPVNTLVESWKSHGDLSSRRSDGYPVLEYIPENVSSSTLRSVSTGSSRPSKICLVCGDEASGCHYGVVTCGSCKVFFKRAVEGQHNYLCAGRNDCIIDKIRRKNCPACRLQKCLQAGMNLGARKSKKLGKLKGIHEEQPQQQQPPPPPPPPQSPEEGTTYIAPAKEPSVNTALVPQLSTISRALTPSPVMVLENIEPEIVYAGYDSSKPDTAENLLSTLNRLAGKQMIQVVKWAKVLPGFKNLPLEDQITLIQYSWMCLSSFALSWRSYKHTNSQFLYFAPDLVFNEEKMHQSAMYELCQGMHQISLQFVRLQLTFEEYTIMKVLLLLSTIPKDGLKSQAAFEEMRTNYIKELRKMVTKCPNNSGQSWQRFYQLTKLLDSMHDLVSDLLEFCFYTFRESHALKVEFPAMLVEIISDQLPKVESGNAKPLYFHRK

glucocorticoid receptor = biological target: T2, glucocorticoid receptor (Homo sapiens, UniProt P04150); details: relative to cortisol; cited from earlier work
T2 sequence (P04150 1-777): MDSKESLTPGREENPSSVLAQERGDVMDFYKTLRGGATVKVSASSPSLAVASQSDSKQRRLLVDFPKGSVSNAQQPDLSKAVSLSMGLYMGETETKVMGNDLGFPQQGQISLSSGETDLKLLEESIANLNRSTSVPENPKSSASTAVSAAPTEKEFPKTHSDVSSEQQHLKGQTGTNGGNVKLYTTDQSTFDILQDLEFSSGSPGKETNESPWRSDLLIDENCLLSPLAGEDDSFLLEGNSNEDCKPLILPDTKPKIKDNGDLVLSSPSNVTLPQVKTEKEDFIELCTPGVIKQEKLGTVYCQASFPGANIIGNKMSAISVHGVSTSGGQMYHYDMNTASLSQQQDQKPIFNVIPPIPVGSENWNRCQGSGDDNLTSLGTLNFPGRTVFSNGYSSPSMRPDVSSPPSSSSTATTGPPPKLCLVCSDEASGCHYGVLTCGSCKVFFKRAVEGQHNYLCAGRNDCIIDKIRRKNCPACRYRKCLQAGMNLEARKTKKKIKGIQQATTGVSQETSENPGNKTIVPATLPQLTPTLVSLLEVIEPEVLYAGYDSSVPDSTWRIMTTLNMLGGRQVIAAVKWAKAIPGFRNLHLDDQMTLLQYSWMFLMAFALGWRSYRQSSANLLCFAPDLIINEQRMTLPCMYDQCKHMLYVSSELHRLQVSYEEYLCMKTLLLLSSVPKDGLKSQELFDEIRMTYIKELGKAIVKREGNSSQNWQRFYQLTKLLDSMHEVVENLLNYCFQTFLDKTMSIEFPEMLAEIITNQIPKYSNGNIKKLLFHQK

[4] = biological target: T1, mineralocorticoid receptor; details: relative to cortisol; cited from earlier work
rat model of dry AMD = details: compared with TA; Provis et al.; cited from earlier work
[5] = system: New Zealand albino rabbit eyes; details: in vivo
Description: as §1, §2

In the case of `CC(=O)OCC(=O)[C@@]1(O)CC[C@H]2[C@@H]3CCC4=CC(=O)CC[C@]4(C)[C@@]3(F)[C@@H](O)C[C@@]21C` [Fludrocortisone acetate, 9-α-Fiuoro-11β. 17α, 21-trihydroxy-4-pregnene-3, 20 dione acetate], the “histological examination of retinal sections (light microscopy)” value ([1]; 400 μg to 4 mg/0.1 ml) is listed as “no evidence of toxicity or vacuolization except for one eye in the 4 mg group”, the IOP ([1]; all groups) is listed as “normal” and the “ERG in the other groups / other eyes” value ([1]; two weeks after injection) is listed as “normal ERG”. For the same compound, the “ERG in the other groups / other eyes” value ([1]; two weeks after injection, listed as FCA) was “no other problems of reductions in ERG”, the “eyes with intravitreal haemorrhage and reduced ERG” value ([1]; intravitreal 4 mg/0.1 ml, 25 normal rabbits) was “Two” and the “eyes with decreases in ERG” value ([1]; intravitreal 4 mg/0.1 ml, two weeks after injection) was “one”. For the same compound, the “time by which all aggregates disappeared” value ([1]; 2-mg group) was 22 ± 8 days, the “time by which all aggregates disappeared” value ([1]; 4-mg group) was 33 ± 7 days and the “inflammation in anterior or posterior segment (slit lamp biomicroscopy, indirect ophthalmoscopy)” value ([1]; up to 40 days of observations) was “did not show any evidence of significant inflammation”. For the same compound, the human equivalent dose [2] was 67 mg/eye, the MR potency [3] was 200 and the “glucocorticoid activity, times higher than cortisol” value (glucocorticoid receptor) was “ten”. The “mineralocorticoid effect, times higher than cortisol” value [4] was 250 times, the “preventing cell death, macrophage recruitment, preserving a- and b-wave ERG amplitude” value (rat model of dry AMD) was “superior to TA” and the “tolerability in a panel of animal toxicology studies” value [5] was “well-tolerated”.
